# Data: ChEMBL document CHEMBL5375963, “Discovery of a First-in-Class Small-Molecule Ligand for WDR91 Using DNA-Encoded Chemical Library Selection Followed by Machine Learning” (J Med Chem, 2023)
# pKd: −log10 of the molar value. Calls of active or inactive are those of the source. No cut-off for these calls is given here.
# Assays:
# [1] = target: T1, WD repeat-containing protein 91 (Homo sapiens, UniProt A4D1P6); assay: (§1) Binding affinity to C-terminal His6-tagged truncated WDR91 (unknown origin) (P392 to A747 residues) expressed in baculovirus-infected Sf9 cells assessed as dissociation constant incubated for 72 to 96 hrs by SPR analysis
# T1 sequence (A4D1P6 whole entry): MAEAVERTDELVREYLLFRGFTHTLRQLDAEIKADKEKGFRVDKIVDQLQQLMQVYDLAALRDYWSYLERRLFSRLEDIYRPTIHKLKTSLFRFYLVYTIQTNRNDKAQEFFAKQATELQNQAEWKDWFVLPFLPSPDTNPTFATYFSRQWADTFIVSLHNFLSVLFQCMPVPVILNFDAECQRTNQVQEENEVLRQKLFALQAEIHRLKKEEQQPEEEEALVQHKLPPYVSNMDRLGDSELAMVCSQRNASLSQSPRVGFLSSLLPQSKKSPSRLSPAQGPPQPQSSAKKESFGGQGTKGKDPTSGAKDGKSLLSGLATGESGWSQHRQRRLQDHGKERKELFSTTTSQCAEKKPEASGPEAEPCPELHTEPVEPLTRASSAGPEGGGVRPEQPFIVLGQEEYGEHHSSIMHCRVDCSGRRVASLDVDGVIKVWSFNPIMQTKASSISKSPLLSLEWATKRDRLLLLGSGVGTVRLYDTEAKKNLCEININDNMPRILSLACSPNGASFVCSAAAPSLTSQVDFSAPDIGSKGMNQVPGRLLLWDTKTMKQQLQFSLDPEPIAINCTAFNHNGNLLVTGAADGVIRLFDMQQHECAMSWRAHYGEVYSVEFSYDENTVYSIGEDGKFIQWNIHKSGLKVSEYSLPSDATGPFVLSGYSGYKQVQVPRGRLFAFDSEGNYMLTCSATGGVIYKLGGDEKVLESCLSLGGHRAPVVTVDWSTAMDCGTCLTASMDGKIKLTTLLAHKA
# [2] = target: T2, WD repeat-containing protein 91 (Homo sapiens) (UniProt A4D1P6); assay: Binding affinity to C-terminal His6-tagged truncated WDR91 (unknown origin) (P392 to A747 residues) expressed in baculovirus-infected Sf9 cells assessed as thermal stabilization by measuring change in melting temperature incubated for 2 hrs by differential scanning fluorimetry analysis
# T2 sequence (whole entry): T1 sequence (A4D1P6 whole entry)
# [3] = target: T2, WD repeat-containing protein 91 (Homo sapiens); assay: Binding affinity to C-terminal His6-tagged truncated WDR91 (unknown origin) (P392 to A747 residues) expressed in baculovirus-infected Sf9 cells assessed as covalent adduct formation incubated for 2 hrs by LC-MS analysis
# [4] = target: T2, WD repeat-containing protein 91 (Homo sapiens); assay: Binding affinity to C-terminal His6-tagged truncated WDR91 (unknown origin) (P392 to A747 residues) expressed in baculovirus-infected Sf9 cells assessed as maximum response incubated for 2 hrs relative to control
# [5] = target: T2, WD repeat-containing protein 91 (Homo sapiens); assay: as §1; conditions: time 72-96 hrs
pKd [1],SMILES,also measured
4.96,Cc1cn2cc(C(=O)NC3(c4ccc(Cl)cc4)COC3)sc2n1,–
5.10,O=C(NC1(c2ccc(Cl)cc2)COC1)c1ccc(-c2cc[nH]n2)s1,–
4.43,NC(=O)C1CCCN(c2ccc(C(=O)NC(c3ccc(Cl)cc3)C3CC3)cc2)C1 (stereo not drawn),–
5.22,O=C(NC1(c2ccc(Cl)cc2)COC1)c1ccc(N2CCC(O)CC2)cc1,–
4.01,CC(=O)NCc1ccc(C(=O)NC2(c3ccc(Cl)cc3)COC2)cc1,–
4.00,O=C(NC(CCO)c1ccc(Cl)cc1)c1ccc(CN2CCCC2=O)cc1 (stereo not drawn),–
4.44,C=CC(=O)N1CCCc2c(C(=O)NC3(c4ccc(Cl)cc4)COC3)cccc21,ΔTm [2]: 4 °C; Activity [3]: Active; Rmax [4]: 53%
4.85,NC(=O)C1CCCN(c2ccc(C(=O)NC(CCO)c3ccc(Cl)cc3)cc2)C1 (stereo not drawn),–
4.85,O=C(NC1(c2ccc(Cl)cc2)COC1)c1ccc2snnc2c1,–

# The next lines start with the molecule.
SMILES,pKd [1],also measured
O=C1Cc2c(cccc2C(=O)NC2(c3ccc(Cl)cc3)COC2)N1,4.66,–
O=C(NC(CCO)c1ccc(Cl)cc1)c1ccc(N2CCC(O)C2)cc1 (stereo not drawn),4.82,–
O=C(c1ccc(N2CCC(O)C2)cc1)N1CC(O)(c2ccc(Cl)cc2)C1 (stereo not drawn),4.80,–
O=C(NC1(c2ccc(Cl)cc2)COC1)c1ccc(CN2CCCC2=O)cc1,4.96,–
Nc1ncnc2ccc(C(=O)NC3(c4ccc(Cl)cc4)COC3)cc12,4.38,–
C=CC(=O)N1CCCc2c(C(=O)NC(c3ccc(Cl)cc3)C3CC3)cccc21 (stereo not drawn),4.37,ΔTm [2]: 4 °C; Activity [3]: Active; Rmax [4]: 54%
O=C(NC1(c2ccc(Cl)cc2)COC1)c1ccc(C2(O)COC2)cc1,4.70,–
C=CC(=O)N1CCCc2c(C(=O)NC(c3ccc(F)cc3)C3CCCCC3)cccc21 (stereo not drawn),–,Activity [3]: inactive; Activity [5]: inactive; Rmax [4]: inactive
C=CC(=O)Nc1ccc(CC(=O)NC2(c3ccccc3)COC2)cc1,–,Activity [3]: inactive; Activity [5]: inactive; Rmax [4]: inactive
